Laboratory results published in patent US20240052133A1, “CHEMICAL RECYLING OF PLASTICS USING IONIC LIQUIDS OR DEEP EUTECTIC SOLVENTS” (THE REGENTS OF THE UNIVERSITY OF CALIFORNIA, priority 2022, published 2024).
Where two headings read alike, the source gives them in different places.

Columns and labels:
[1] = test system: Pseudomonas putida KT2440; assay: Pseudomonas putida KT2440 cell growth test (OD600) with different carbon sources; format: cell-based; settings: for cell growth (cell concentration): synthetic solutions matching concentrations in the depolymerized polymers, versus 10 mM glucose control
Experimental: [38, 39, 44, 45]. […] This is likely due to the relatively high [Ch][Lys] concentration, where the [Ch][Lys] concentration is 4 wt %.
Due to the fact that the depolymerized PET/PLA comprises multiple carbon sources (e.g., TPA, LA, and [Ch][Lys]), it is essential to identify the major contributors for the cell growth. Two additional tests were performed. […] The depolymerized products were then diluted 20-fold to prepare the media for cell growth test. A media prepared with only [Ch][Lys] was used as the IL control.
To validate this hypothesis, a second cell growth test was conducted using synthetic TPA and LA as the media. TPA, LA, and TPA/LA mixture were prepared to match the concentrations in the depolymerized polymers. […] It can be concluded that Pseudomonas putida KT2440 is capable of catabolizing LA from depolymerized PLA and [Ch][Lys] as carbon sources, but lacks a natural metabolic pathway to consume TPA. So far, no natural terephthalate degradation pathway has been reported in Pseudomonas putida KT2440. This is consistent with our findings that TPA cannot support cell growth of Pseudomonas putida KT2440. A recent study has shown the success in engineering Pseudomonas putida KT2440 to catabolize TPA for different fermentation products. This opens the door to efficiently utilizing both TPA and LA from the depolymerized PET/PLA.
Pseudomonas putida KT2440 was inoculated as the seed culture at 30° C. overnight. The cell culture was spun down and washed with 3-(N-morpholino)propane sulfonic acid (MOPS) buffer for 5 times to remove the carbon sources. 1% cell resuspension was inoculated into 500 μL growth media in 48 well plates. The growth media included MOPS rich buffer (Teknova, #M2105) and 25 μg/mL Chloramphenicol, added with different carbon sources to support the cell growth (Table 4). Cell growths were monitored continuously at OD600 nm for 72-120 h in the plate reader (Biotek-Synergy, Y-H1) at 30° C., 570 rpm.

[2] = cited from earlier work
[3] = pH of the reaction solution before and after IL catalyzed depolymerization; format: physicochemical; settings: for pH before reaction: IL systems 10 wt % in water, alkaline water adjusted with NaOH; for pH after reaction, PET: after depolymerization reaction of PET; for pH after reaction, PLA: after depolymerization reaction of PLA
Experimental: Hydrolytic depolymerization of PET and PLA involves chain scission of ester linkages, where a carboxyl end group is released. […] We hypothesized that the pH influenced by IL was the major driving force of PET and PLA depolymerization. To test the hypothesis, a set of control experiments were conducted using only water and alkaline water as the solvent. […] (with pH 11.8).

[4] = Hydrolytic depolymerization of PET using ILs in water
Experimental: (§1) Most of them are conventional imidazolium-based, including the ones that contain halometallates. With the progress in the IL research, economic and biocompatible cholinium-based ILs have attracted high interest.
(§2) […] […] The tube was immersed in a preheated oil bath at a desired temperature. Upon completion of the reaction, the tube was taken out from the oil bath and cooled to room temperature.
The reaction residue was transferred to a 50 mL falcon tube, where solid residue was recovered through centrifugation. The solid fraction was washed with 5 mL deionized water three times before being dried in a lyophilizer (Labconco, Kansas City, MO). The liquid fraction was sampled for product analysis. The depolymerization and product yield are defined as follows:
(§3) Depolymerization=Wsubstrate−W1Wsubstrate100%
(§4) Yield=Wproduct/MproductWsubstrate/Msubstrate×100%
(§5) Then 4 mM sulfuric acid was used as the mobile phase at a flow rate of 1.0 mL/min. The column oven temperature was maintained at 65° C.

[5] = Hydrolytic depolymerization of PLA using ILs in water
Experimental: as §1, §2
(§6) The reaction residue was transferred to a 50 mL falcon tube, where solid residue was recovered through centrifugation. […] The liquid fraction was sampled for product analysis. The depolymerization and product yield are defined as follows:
as §3, §4, §5

[6] = Depolymerization of PET/PLA mixtures (1:1 mass ratio) using [Ch][Lys]; settings: 160° C.
Description: As discussed previously, the current waste management facilities will not completely eliminate the PLA contamination when sorting PET for recycling. […] Chemical recycling is an alternative to mechanical recycling in regard to dealing with PLA contaminants. […] Given its high catalytic activity, [Ch][Lys] was selected as the IL in the reaction. It should be emphasized that [Ch][Lys] is a favorable choice not only because of its high depolymerization efficiency but also because it is economic, biocompatible, less toxic, and environmentally friendly.
The initial set of experiments was carried out at 160° C. for two hours. As shown in FIG. 4A and FIG. 4B, the depolymerization efficiency varied across different IL loadings. […] Meanwhile, the TPA yield turned to be negligible (1.5%) and the LA yield was merely 40.9%. The reasons are manifold.
Although [Ch][Lys] is considered as cost-competitive compared to other conventional ILs, IL usage is often the major cost contributor in the process economics. In order to explore the way to reduce IL loading, a set of experiments was conducted by increasing the reaction time from 2 h to 6 h. Overall, reaction time extension improved both depolymerization and product yields at low IL loadings (FIG. 4A, FIG. 4B and FIG. 4C). […].
The depolymerization reaction of polyesters were conducted in a 15 mL pressure tube (Ace Glass Inc., Vineland, NJ) at […] for one hour. […] The tube was immersed in a preheated oil bath at a desired temperature. Upon completion of the reaction, the tube was taken out from the oil bath and cooled to room temperature.
as §6, §3, §4
Terephthalic acid (TPA) and lactic acid (LA) were measured on a Thermo Scientific Ultimate 3000 HPLC (Waltham, MA, USA) equipped with a Bio-Rad Aminex HPX-87H column (300×7.8 mm, Hercules, CA, USA) and a Refractive Index (RI) detector. Then 4 mM sulfuric acid was used as the mobile phase at a flow rate of 1.0 mL/min. The column oven temperature was maintained at 65° C.

[7] = 160° C., 20% [Ch][Lys] loading, 6 hours
[8] = 180° C., 2 hours, 10% IL in water
[9] = 130° C., 2 hours, 10% IL in water
[10] = 90 wt % IL loading (no water), 2 h

Compound: CC(O)C(=O)O (stereo not drawn) [LA, lactic acid]
- cell growth (cell concentration) [1]: higher than glucose control

Compound: O=C(O)c1ccc(C(=O)O)cc1 [TPA, terephthalic acid]
- cell growth (cell concentration) [1]: No cell growth was observed
- solubility in water ([2]; acidic pH): insoluble
- solubility in water ([2]; alkaline conditions): water soluble

Compound: O [Water]
- pH before reaction [3]: 7.6
- pH after reaction, PET [3]: 3.4
- pH after reaction, PLA [3]: 3.4

Compound: C[N+](C)(C)CCO.C[N+](C)(C)CCO.C[N+](C)(C)CCO.O=P([O-])([O-])[O-] [[Ch]3[Phos], cholinium phosphate]
- pH before reaction [3]: 12.7
- pH after reaction, PET [3]: 7.7
- pH after reaction, PLA [3]: 8.1

Compound: C[N+](C)(C)CCO.NCCCC[C@H](N)C(=O)[O-] [[Ch][Lys], cholinium lysinate]
- depolymerization of PET [4, 7]: Up to 100%
- TPA yield (product yield from PET) [4, 8]: 44.5%
- depolymerization efficiency of PET [4, 8]: 52.7%
- LA yield (product yield from PLA) [5, 9]: 39.3%
- depolymerization efficiency of PLA [5, 9]: 40.2%
- depolymerization of PLA [5, 7]: Up to 100%
- depolymerization efficiency of PET/PLA mixture ([6]; 10 wt % IL loading, 2 h): 50.8%
- LA yield from PET/PLA mixture ([6]; 45 wt % IL loading, 2 h): 93.8%
- TPA yield from PET/PLA mixture ([6]; 45 wt % IL loading, 2 h): 79.6%
- LA yield from PET/PLA mixture ([6]; 60 wt % IL loading, 2 h): 53.1%
- TPA yield from PET/PLA mixture ([6]; 60 wt % IL loading, 2 h): 77.2%
- depolymerization efficiency of PET/PLA mixture ([6]; 60 wt % IL loading, 2 h): 99.5%
- LA yield from PET/PLA mixture [6, 10]: 40.9%
- TPA yield from PET/PLA mixture [6, 10]: 1.5%
- depolymerization efficiency of PET/PLA mixture [6, 10]: 91.5%
- LA yield from PET/PLA mixture, change versus 2 h ([6]; 90 wt % IL loading, 6 h): decreased by half
- TPA yield from PET/PLA mixture ([6]; 90 wt % IL loading, 6 h): 1.6%
- depolymerization of PET/PLA mixture ([6]; 90 wt % IL loading, 6 h): 97.1%
- pH before reaction [3]: 11.8
- pH after reaction, PET [3]: 11.0
- pH after reaction, PLA [3]: 11.1
- cell growth ([1]; media prepared with only [Ch][Lys] (IL control)): contributor to the cell growth

Compound: C[N+](C)(C)CCO.O=C([O-])[C@H](O)[C@@H](O)[C@H](O)[C@H](O)CO [[Cholinium][Gluconate], cholinium gluconate]
- TPA yield higher over [Ch][Lys] ([4]; another experiment, PET depolymerization): 100%

Compound: CCn1cc[n+](C)c1.[Cl-] [[Emim]Cl, 1-ethyl-3-methylimidazolium chloride]
- pH before reaction [3]: 6.4
- pH after reaction, PET [3]: 4.5
- pH after reaction, PLA [3]: 3.2

Compound: CC(=O)[O-].CCn1cc[n+](C)c1 [[Emim][Ac], 1-ethyl-3-methylimidazolium acetate]
- pH before reaction [3]: 7.1
- pH after reaction, PET [3]: 6.8
- pH after reaction, PLA [3]: 7.2
